# Measured values reported in patent publication US20170202878A1, “Method for Preventing or Treating a Protein Aggregation Disease” (Queen Mary University of London, priority 2014, published 2017).
# Tests used:
# [1] = system: RNAse-aggregated proteins from human neurons; assay: RNA-mediated re-folding of RNAse-aggregated proteins; format: biochemical; settings: for protein solubilising effect of G-quadruple-forming and non-forming oligos: RNAse aggregated proteins from human neurons, aggregated proteins quantified
# Method: Proteins were isolated from neuronal lysate by RNAse A/T1 treatment and centrifugation. Pelleted proteins were dissolved in 50 μl of denaturation buffer (20 mM Tris-HCl pH 7.5, 6 M Guanidine hydrochloride, 1% Triton X-100, 20 mM DTT) and sonicated for 5 min at room temperature. […] Dialysis was performed against 600 ml PBS buffer at 4° C. overnight after which the PBS was replaced with fresh PBS (400 ml) and the container placed in a water bath and kept at 37° C. for 1 h. The dialysed samples were transferred to 1.5 ml tubes and the volume adjusted to 100-200 μl with PBS. 7.5-10% of this was taken as Input. Precipitated proteins (Pel 1) were pelleted by centrifugation at 21.000×g for 10 min at +4° C., washed twice in RIPA buffer and processed for SDS-PAGE as before. 7.5-10% of the supernatants was saved (Sup 1) and the remaining volume was either divided into two new tubes supplemented with 0.5 μl vehicle or 0.5 μl RNAse A/T1 or the whole sample placed in one tube and treated with 0.5 μl RNAse A/T1. All samples were incubated at 37° C. for one hour and centrifuged as before. Pelleted proteins (P2) were washed as before and dissolved in SDS/Urea and sonicated. Equal volumes of each fraction were separated on SDS-PAGE gels and then either stained with coomassie or transferred to membranes for western blot analysis. RNA was isolated from cell lysates and purified ribosomes with Trizol LS (Life Technologies) according to the manufacturer's instructions. Ribosomes were isolated from Jurkat T-cells. RNA depleted for rRNA was isolated from the upper two thirds of the supernatant (after pelleting of ribosomes and five times dilution in water) with acid phenol (Life Technologies) followed by EtOH precipitation. RNA from intact cells was isolated with Isol-RNA Lysis Reagent (5 PRIME), according to the manufacturer's instructions. All RNA samples were dissolved in TE (10 mM Tris-HCl pH 8.0, 1 mM EDTA). RNA was analysed by 1.5% agarose or 6% PAGE/8M Urea gel electrophoresis and visualised with Ethidium Bromide. […]
# [2] = system: lysate from mouse cortex; assay: Ribonucleoside vanadyl: impact on protein aggregation; format: biochemical; settings: 10 mM, 1 hour at 37° C., coomassie SDS-PAGE
# [3] = system: cell or tissue lysate treated with RNAse A/T1; assay: Sodium orthovanadate: impact on RNAse-induced protein aggregation
# Method: Cell or tissue lysate was prepared as described above. Lysate (200 μg at 2 μg/ul) is then treated with a mixture of RNAse A and T1 (A/T1), and incubated with increasing concentrations of Sodium Orthovanadate for one hour at 37° C. Aggregated proteins were isolated by centrifugation (21.000×g) at 4° C. for 20 min, washed twice in 500 μl RIPA buffer and then dissolved in 12 μl 6M Guanidine Hydrochloride, 20 mM Tris-HCl pH 7.5 by sonication for 5 min at room temperature. The amount of protein in 5 μl of this solution was then determined by using the BCA Kit (Thermo Scientific) according to the manufacturer's protocol. Data were expressed in arbitrary units (AU) as a fraction of the amount aggregated proteins (P1)/the amount of protein in the Input, and represent mean±s.d, n=2. […] The experiment was repeated with 50 μM SO and increasing concentrations of RNAse A/T1.
# [4] = system: aggregated proteins from Jurkat T-cells; assay: Two-step refolding of proteins with small molecules or synthetic DNA/RNA; settings: increasing concentrations
# [5] = system: amyloid-β, tau (MAPT), α-synuclein (SNCA), TARDBP (TDP-43), FUS, HTT, PrP, HNRNPA1, actin, NF-H in human neuronal lysates
# [6] = system: Huntingtin (HTT), FUS and TARDBP in Jurkat cell lysates; format: biochemical, human; settings: 15 min treatment, then 1 hour at 37° C.
molecule,measurement,setting,value
"18S 1129-69: predicted G4-forming ssDNA oligo derived from human 18S ribosomal RNA, 40 nt",protein solubilising effect of G-quadruple-forming and non-forming oligos,[1],can solubilise the proteins
Ribonucleoside vanadyl,protein aggregation in lysate in the absence of exogenous RNAse,[2],causes substantial protein aggregation
same,protein aggregation in lysate in the absence of exogenous RNAse,[2]; listed as Riobonucleoside vanadyl (VA),causes protein aggregation
"No 4G 1129-69: oligo with same nucleotides as 18S 1129 in an order not predicted to form G-quadruples (DNA TTAAGGGCATCTGATGCGGCGCGTGACGCGGCGCTAAGTG; DNA, backbone not given here)",protein solubilising effect of G-quadruple-forming and non-forming oligos,[1],much less efficient
[Na+].[Na+].[Na+].[O]=[V]([O-])([O-])[O-] [Sodium orthovanadate],background protein aggregation in lysate,[3],prevents any background protein aggregation
same,inhibition of RNAse mediated protein aggregation,"[3]; added to cell or tissue lysate together with RNAses, 1 hour at 37° C., e.g. TDP-43 and huntingtin",completely inhibit aggregation of the proteins
same,prevention of protein aggregation after refolding (BCA assay),[4],can mimic RNA/DNA in preventing protein aggregation after refolding
heparin,re-folding / solubilisation of RNAse-aggregated proteins (global protein profile),"[1]; denatured in 6M guanidine hydrochloride, dialysed, same amount in weight of nucleic acid or heparin",neither yeast tRNA nor heparin could substitute for the solubilising capacity of total human RNA
"RNase T1: ribonuclease cleaving single-stranded RNA after G (protein, UniProt P00651 27-130, looked up) Guanyl-specific ribonuclease …: ACDYTCGSNCYSSSDVSTAQAAGYQLHEDGETVGSNSYPHKYNNYEGFDFSVSSPYYEWPILSSGDVYSGGSPGADRVVFNENNQLAGVITHTGASGNNFVECT",proteins most efficiently precipitated by the RNase (western blot),[5],FUS
"immobilised RNAse A: biotinylated RNAse A coupled to magnetic strepavidine beads (protein, UniProt P61823 27-150, looked up, biotinylated, coupled to streptavidin magnetic beads) Ribonuclease pancreatic: KETAAAKFERQHMDSSTSAASSSNYCNQMMKSRNLTKDRCKPVNTFVHESLADVQAVCSQKNVACKNGQTNCYQSYSTMSITDCRETGSSKYPNCAYKTTQANKHIIVACEGNPYVPVHFDASV","aggregation of HTT, FUS and TARDBP after mixing 10% treated lysate with non-treated lysate (western blot)",[6],increase in aggregation
"RNase A: ribonuclease cleaving single-stranded RNA after C and U, from Sigma (protein) KETAAAKFERQHMDSSTSAASSSNYCNQMMKSRNLTKDRCKPVNTFVHESLADVQAVCSQKNVACKNGQTNCYQSYSTMSITDCRETGSSKYPNCAYKTTQANKHIIVACEGNPYVPVHFDASV",proteins most efficiently precipitated by the RNase (western blot),[5],"TARDBP, HTT and PrP"
